Literature values, collected in patent publication US20020022024A1, “Hemoglobinase inhibitors and methods of use” (priority 2000, published 2002).

How the values were obtained:
[1] = molecular target: T1, S. mansoni cathepsin B, Sm31 (Schistosoma mansoni, UniProt P25792); settings: short synthetic substrate; Klinkert et al. 1994
T1 sequence (P25792 89-340): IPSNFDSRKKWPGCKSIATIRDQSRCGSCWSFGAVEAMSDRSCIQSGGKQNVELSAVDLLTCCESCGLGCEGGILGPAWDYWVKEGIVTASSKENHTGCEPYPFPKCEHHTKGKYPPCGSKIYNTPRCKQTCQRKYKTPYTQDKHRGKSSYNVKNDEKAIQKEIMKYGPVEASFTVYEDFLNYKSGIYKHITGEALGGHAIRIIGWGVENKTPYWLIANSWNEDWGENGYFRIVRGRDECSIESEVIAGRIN

schistosomules = settings: added to culture media, in comparison to controls; Zerda et al. 1988

Row | SMILES | inhibitor potency on Sm31 relative to a derivative of E64 [1] | death rate of schistosomules (schistosomules)
1 | CSCCC(NC(=O)C(Cc1c[nH]c2ccccc12)NC(=O)OCc1ccccc1)C(=O)C=[N+]=[N-] (stereo not drawn) [Z-Trp-Met-CHN2] | more potent inhibitor of Sm31 | –
2 | CC(C)C[C@H](NC(=O)[C@H]1O[C@@H]1C(=O)O)C(=O)NCCCCN [EP459] | – | increased the death rate of schistosomules
